Laboratory results: ChEMBL document CHEMBL3632483, “Synthesis and pharmacological evaluation of piperidine (piperazine)-substituted benzoxazole derivatives as multi-target antipsychotics” (Bioorg Med Chem Lett, 2015)
Active and inactive are the calls of the source. No cut-off for these calls is given here.

Tests used:
[1] = target: T1, Adrenergic receptor alpha-1 (Rattus norvegicus, UniProt P15823+P23944+P43140); experiment: Displacement of [3H]prazosin from adrenergic alpha1 receptor in rat cerebral cortex homogenates after 60 mins by liquid scintillation counting; type: tissue-based
T1 sequence (P15823 whole entry): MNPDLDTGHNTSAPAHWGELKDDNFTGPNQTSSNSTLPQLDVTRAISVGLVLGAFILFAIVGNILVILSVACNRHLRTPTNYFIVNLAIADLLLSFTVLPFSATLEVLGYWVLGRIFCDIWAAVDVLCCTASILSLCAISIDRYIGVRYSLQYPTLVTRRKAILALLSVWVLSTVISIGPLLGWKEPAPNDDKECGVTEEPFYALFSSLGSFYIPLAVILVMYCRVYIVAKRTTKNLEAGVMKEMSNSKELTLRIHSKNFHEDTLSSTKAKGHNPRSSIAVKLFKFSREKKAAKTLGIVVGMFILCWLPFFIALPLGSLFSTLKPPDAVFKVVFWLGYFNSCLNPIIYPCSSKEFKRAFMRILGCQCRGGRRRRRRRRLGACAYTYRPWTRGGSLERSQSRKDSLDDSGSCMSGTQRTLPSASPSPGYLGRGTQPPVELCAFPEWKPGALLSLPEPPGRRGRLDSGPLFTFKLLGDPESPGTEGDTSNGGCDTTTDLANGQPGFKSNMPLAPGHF
T1 sequence (P23944 whole entry): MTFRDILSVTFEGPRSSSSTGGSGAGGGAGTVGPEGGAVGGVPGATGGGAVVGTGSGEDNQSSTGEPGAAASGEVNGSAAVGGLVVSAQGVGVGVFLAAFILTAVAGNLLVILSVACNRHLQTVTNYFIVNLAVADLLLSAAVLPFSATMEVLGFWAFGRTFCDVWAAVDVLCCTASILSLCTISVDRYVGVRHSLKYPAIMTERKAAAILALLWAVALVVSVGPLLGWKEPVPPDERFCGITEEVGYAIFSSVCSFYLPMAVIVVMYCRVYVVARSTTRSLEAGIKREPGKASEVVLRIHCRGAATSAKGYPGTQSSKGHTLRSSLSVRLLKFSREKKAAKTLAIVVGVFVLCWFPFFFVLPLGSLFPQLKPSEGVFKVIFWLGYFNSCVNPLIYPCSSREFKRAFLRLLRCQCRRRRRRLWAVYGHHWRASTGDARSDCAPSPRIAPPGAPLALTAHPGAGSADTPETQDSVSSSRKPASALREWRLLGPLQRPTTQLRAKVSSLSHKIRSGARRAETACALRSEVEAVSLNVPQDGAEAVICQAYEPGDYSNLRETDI
T1 sequence (P43140 whole entry): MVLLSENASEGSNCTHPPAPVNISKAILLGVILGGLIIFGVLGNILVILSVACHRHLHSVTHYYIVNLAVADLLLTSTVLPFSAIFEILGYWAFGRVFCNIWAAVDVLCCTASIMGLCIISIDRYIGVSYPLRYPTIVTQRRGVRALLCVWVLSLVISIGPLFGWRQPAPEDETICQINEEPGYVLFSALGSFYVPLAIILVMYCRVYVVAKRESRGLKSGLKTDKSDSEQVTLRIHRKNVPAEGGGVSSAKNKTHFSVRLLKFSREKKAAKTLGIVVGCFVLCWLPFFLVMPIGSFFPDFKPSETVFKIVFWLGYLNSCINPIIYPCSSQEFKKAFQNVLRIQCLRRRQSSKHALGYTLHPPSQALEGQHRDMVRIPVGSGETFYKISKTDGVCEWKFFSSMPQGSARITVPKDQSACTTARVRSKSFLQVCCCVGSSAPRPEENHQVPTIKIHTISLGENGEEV

Mus musculus [2] = experiment: Neurotoxicity in Chinese Kun Ming mouse assessed as locomotor activity by measuring total distance traveled at 3 mg/kg, po administered 1 hr before test measured for 10 mins (reference value: 13263.8 +/- 8034.2 millimeter); type: toxicity, organism-based; details: in vivo
Mus musculus [3] = experiment: Antipsychotic activity in Chinese Kun Ming mouse assessed as inhibition of apomorphine-induced reaching behaviour at 1 mg/kg, po administered 30 mins before apomorphine challenge measured up to 30 mins; type: functional, organism-based
Mus musculus [4] = experiment: Neurotoxicity in Chinese Kun Ming mouse assessed as locomotor activity by measuring total distance traveled at 10 mg/kg, po administered 1 hr before test measured for 10 mins (reference value: 13263.8 +/- 8034.2 millimeter); type: toxicity, organism-based; details: in vivo
Mus musculus [5] = experiment: Antipsychotic activity in po dosed Chinese Kun Ming mouse assessed as inhibition of apomorphine-induced climbing administered 30 mins before apomorphine challenge measured up to 30 mins; type: functional
Histamine H1 receptor = Histamine H1 receptor (Cavia porcellus, UniProt P31389); experiment: Displacement of [3H]mepyramine from histamine H1 receptor in guinea pig cerebellum homogenates after 60 mins by liquid scintillation counting
Sequence of Histamine H1 receptor (P31389 whole entry): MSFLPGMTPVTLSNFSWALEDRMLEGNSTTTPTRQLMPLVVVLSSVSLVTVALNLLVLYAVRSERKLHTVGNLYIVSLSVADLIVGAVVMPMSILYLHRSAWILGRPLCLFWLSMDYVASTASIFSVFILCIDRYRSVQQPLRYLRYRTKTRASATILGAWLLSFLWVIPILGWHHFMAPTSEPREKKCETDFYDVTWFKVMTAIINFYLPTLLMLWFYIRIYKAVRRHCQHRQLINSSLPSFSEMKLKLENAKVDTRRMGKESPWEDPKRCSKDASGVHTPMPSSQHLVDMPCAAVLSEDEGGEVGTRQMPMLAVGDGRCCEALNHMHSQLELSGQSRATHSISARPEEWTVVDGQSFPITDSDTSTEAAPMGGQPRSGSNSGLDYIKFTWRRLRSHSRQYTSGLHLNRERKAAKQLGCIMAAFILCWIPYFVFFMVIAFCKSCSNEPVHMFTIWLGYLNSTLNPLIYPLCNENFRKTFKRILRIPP

Mus musculus [6] = experiment: Neurotoxicity in Chinese Kun Ming mouse assessed as locomotor activity by measuring total distance traveled at 1 mg/kg, po administered 1 hr before test measured for 10 mins (reference value: 13263.8 +/- 8034.2 millimeter); type: toxicity, organism-based; details: in vivo
Mus musculus [7] = experiment: Toxicity in po dosed Chinese Kun Ming mouse assessed as induction of catalepsy by measuring immobility score of 30 seconds administered 30 mins before first assessment; type: organism-based; details: in vivo, 0.5 h
Mus musculus [8] = experiment: Antipsychotic activity in Chinese Kun Ming mouse assessed as inhibition of apomorphine-induced climbing behaviour at 1 mg/kg, po administered 30 mins before apomorphine challenge measured up to 30 mins; type: functional, organism-based
Mus musculus [9] = experiment: Antipsychotic activity in po dosed Chinese Kun Ming mouse assessed as inhibition of DOI-induced head twitch administered 60 mins before DOI challenge measured up to 15 mins; type: functional

Compound | Ki [1] [nM] | Activity (Mus musculus [2]) [mm] | inhibition (Mus musculus [3]) | Activity (Mus musculus [4]) [mm] | ED50 (Mus musculus [5]) [mg/kg] | Ki (Histamine H1 receptor) [µM] | Activity (Mus musculus [6]) [mm] | ED50 (Mus musculus [7]) [mg/kg] | inhibition (Mus musculus [8]) | ED50 (Mus musculus [9]) [mg/kg] | inhibition (Mus musculus [9])
Fc1ccc2c(C3CCN(CCCOc4ccc(-c5nc6ccccc6o5)cc4)CC3)noc2c1 | 95 | – | – | – | – | – | – | – | – | – | –
Fc1ccc2c(C3CCN(CCCOc4ccc(Cc5nc6ccccc6o5)cc4)CC3)noc2c1 | 3276 | 10447.5 | Active | 9492.4 | 0.86 | 3.15 | 13046.7 | 70.5 | Active | 0.71 | Dose-dependent effect
